# Experimental data: publication PMC10350920, “Development of a 2,4-Diaminothiazole Series for the Treatment of Human African Trypanosomiasis Highlights the Importance of Static–Cidal Screening of Analogues” (Journal of Medicinal Chemistry, 2023)
# How the values were obtained:
# human MRC-5 fibroblasts = experiment: Mammalian cell counter screen (MRC-5); type: cell-based; details: for SI: selectivity index (EC50 MRC5/EC50 T. brucei)
# Description: (§1) Drug sensitivity assays with BSF T. b. brucei “single marker” S427 and human MRC-5 fibroblasts were conducted as previously described.[43]
# [1] = system: BSF T. b. brucei “single marker” S427; experiment: Drug sensitivity assay with bloodstream-form T. brucei; type: cell-based; details: for EC50: mean values, number of replicates in parentheses; for reduction (loss, drop off) in potency against T. brucei relative to parent analogue: SAR comparison
# Description: as §1
# [2] = Mammalian cell counter screen (MRC-5); type: cell-based, human; details: human, MRC-5 fibroblasts; mean values; number of replicates in parentheses
# Description: as §1
# [3] = Mouse liver microsomal intrinsic clearance; type: in vitro ADME
# Description: Test compounds (0.5 μM) were incubated with female CD1 mouse liver microsomes (Xenotech LLC; 0.5 mg mL^–1 50 mM potassium phosphate buffer, pH 7.4), and the reaction started with the addition of excess NADPH (8 mg mL^–1 50 mM potassium phosphate buffer, pH 7.4). Immediately, at 0 min, and then at 3, 6, 9, 15, and 30 min, an aliquot (50 μL) of the incubation mixture was removed and mixed with acetonitrile (100 μL) to stop the reaction. The internal standard was added to all samples, the samples were centrifuged to sediment the precipitated protein, and the plates were then sealed prior to UPLC–MS/MS analysis using a Quattro Premier XE (Waters Corporation, USA). XLfit (IDBS, UK) was used to calculate the exponential decay and consequently the rate constant (k) from the ratio of the peak area of the test compound to the internal standard at each time point. The rate of intrinsic clearance (CLint) of each test compound was then calculated using the following calculation [drawing 3] where V (mL mg^–1 protein) is the incubation volume mg^–1 protein added and the microsomal protein yield is taken as 52.5 mg protein g^–1 liver. Verapamil (0.5 μM) was used as a positive control to confirm acceptable assay performance.
Compound,EC50 (human MRC-5 fibroblasts) [nM],SI (human MRC-5 fibroblasts),EC50 [1] [nM],EC50 [2] [nM],EC50 ([1]; Trypanosoma brucei) [nM],CLint (mouse) [3] [mL·min/g],"reduction (loss, drop off) in potency against T. brucei relative to parent analogue [1] [fold]"
"1-(4-Amino-2-((3-(difluoromethoxy)phenyl)amino)thiazol-5-yl)-2-((1,1,1-trifluoropropan-2-yl)oxy)ethanone [Compound 54]",> 50000,2500,20,,,,
"Nc1nc(Nc2ccc(F)c(F)c2)sc1C(=O)COC(CF)CF [Compound 48, 1-(4-Amino-2-((3,4-difluorophenyl)amino)thiazol-5-yl)-2-((1,3-difluoropropan-2-yl)oxy)ethanone]",,1000,,> 50000,50,,
"Nc1nc(NC2CCCCC2)sc1C(=O)c1ccc(C(F)(F)F)cc1 [Compound 23, (4-Amino-2-(cyclohexylamino)thiazol-5-yl)(4-(trifluoromethyl)phenyl)methanone]",,56,,37000,660,1.4,
"CC(C)(C)OCC(=O)c1sc(Nc2ccc(F)c(F)c2)nc1N [Compound 43, 1-(4-Amino-2-((3,4-difluorophenyl)amino)thiazol-5-yl)-2-(tert-butoxy)ethanone]",,500,,> 50000,100,,
"Nc1nc(NC2CCCCC2)sc1C(=O)c1ccc(F)c(F)c1 [Compound 30, (4-Amino-2-(cyclohexylamino)thiazol-5-yl)(3,4-difluorophenyl)methanone]",,840,,42000,50,12,
"Nc1nc(NC2CCCCC2)sc1C(=O)C1CCC1 [Compound 19, (4-Amino-2-(cyclohexylamino)thiazol-5-yl)cyclobutylmethanone]",,,,13000,370,21,
"Nc1nc(NC2CCCCC2)sc1C(=O)C1CCCCC1 [Compound 20, (4-Amino-2-(cyclohexylamino)thiazol-5-yl) (cyclohexyl)methanone]",,273,,41000,150,8.9,
"Nc1nc(Nc2ccc(F)c(F)c2)sc1C(=O)COC(C(F)(F)F)C(F)(F)F [Compound 49, 1-(4-Amino-2-((3,4-diflurorophenyl)amino)thiazol-5-yl)-2-(((1,1,1,3,3,3)-hexafluoropropan-2-yl)oxy)ethanone]",,650,,13000,20,,
"CC(C)OCCC(=O)c1sc(Nc2ccc(F)c(F)c2)nc1N [Compound 45, 1-(4-Amino-2-((3,4-difluorophenyl)amino)thiazol-5-yl)-3-isopropoxypropan-1-one]",,19,,> 50000,2600,,
"Nc1nc(NC2CCCCC2)sc1C(=O)c1c(Cl)cccc1Cl [Compound 21, (4-Amino-2-(cyclohexylamino)thiazol-5-yl)(2,6-dichlorophenyl)methanone]",,34,,4800,140,4.1,
"CC(C)(F)CC(=O)c1sc(Nc2ccc(F)c(F)c2)nc1N [Compound 41, 1-(4-Amino-2-((3,4-difluorophenyl)amino)thiazol-5-yl)-3-fluoro-3-methylbutan-1-one]",,82,,46000,560,,
"COC(C)(C)C(=O)c1sc(NC2CCCCC2)nc1N [Compound 17, 1-(4-Amino-2-(cyclohexylamino)thiazol-5-yl)-2-methoxy-2-methylpropan-1-one]",,>26,,> 50000,1900,3.8,
"COC(C)(C)CC(=O)c1sc(Nc2ccc(F)c(F)c2)nc1N [Compound 39, 1-(4-Amino-2-((3,4-difluorophenyl)amino)thiazol-5-yl)-3-methoxy-3-methylbutan-1-one]",,238,,> 50000,210,6.1,
"CC(C)(C)CC(=O)c1sc(Nc2ccc(F)c(F)c2)nc1N [Compound 40, 1-(4-Amino-2-((3,4-difluorophenyl)amino)thiazol-5-yl)-3,3-dimethylbutan-1-one]",,>333,,> 50000,150,4.6,
"CCOCC(=O)c1sc(Nc2ccc(F)c(F)c2)nc1N [Compound 44, 1-(4-Amino-2-((3,4-difluorophenyl)amino)thiazol-5-yl)-2-ethoxyethanone]",,333,,> 50000,150,,
"Nc1nc(Nc2ccccc2)sc1C(=O)c1ccc(F)cc1 [Compound 35, (4-Amino-2-(phenylamino)thiazol-5-yl)(4-fluorophenyl)methanone]",,>263,,> 50000,190,7.3,
"Nc1nc(NC2CCCCC2)sc1C(=O)c1ccc(F)cc1 [Compound 22, (4-Amino-2-(cyclohexylamino)thiazol-5-yl)(4-fluorophenyl)methanone]",,420,,21000,50,4.9,
"O=C(c1cnc(NC2CCCCC2)s1)C1CCCCC1 [Compound 32, Cyclohexyl(2-(cyclohexylamino)thiazole-5-yl)methanone]",,3,,49000,18000,15,> 20
"CC(C)CC(=O)c1sc(Nc2ccc(F)cc2)nc1N [Compound 36, 1-(4-Amino-2-((4-fluorophenyl)amino)thiazol-5-yl)-3-methylbutan-1-one]",,>455,,> 50000,110,8.0,
"Nc1nc(NC2CCCCC2)sc1C(=O)c1ccc(F)cc1F [Compound 29, (4-Amino-2-(cyclohexylamino)thiazol-5-yl)(2,4-difluorophenyl)methanone]",,128,,6400,50,6.5,
"Cc1ccc(C(=O)c2sc(NC3CCCCC3)nc2N)cc1 [Compound 24, (4-Amino-2-(cyclohexylamino)thiazol-5-yl)(p-tolyl)methanone]",,>179,,> 50000,280,,
Nc1nc(NC2CCCCC2)sc1C(=O)c1ccccc1C(F)(F)F [Compound 28],,5,,1900,390,14,
"Nc1nc(NC2CCCCC2)sc1C(=O)c1ccccc1F [Compound 27, (4-Amino-2-(cyclohexylamino)thiazol-5-yl)(2-fluorophenyl)methanone]",,29,,,70,9.7,
"O=C(c1cnc(NC2CCCCC2)s1)c1c(F)cccc1F [Compound 33, (2-(Cyclohexylamino)thiazol-5-yl)(2,6-difluorophenyl)methanone]",,3,,47000,15000,,> 20
"Nc1nc(NC2CCCCC2)sc1C(=O)c1ccncc1 [Compound 25, (4-Amino-2-(cyclohexylamino)thiazol-5-yl)(pyridine-4-yl)methanone]",,41,,19000,460,4.1,
